Experimental findings from patent US12617773B2, “Azetidin-3-ylmethanol derivatives as CCR6 receptor modulators” (Idorsia Pharmaceuticals Ltd, priority 2020, dated 2026) are described below.

The target of the test is T1, human CCR6 (Homo sapiens, UniProt P51684).
T1 construct: expressed in transfected cells; host or cells: HEK-293
T1 sequence (P51684 1-374): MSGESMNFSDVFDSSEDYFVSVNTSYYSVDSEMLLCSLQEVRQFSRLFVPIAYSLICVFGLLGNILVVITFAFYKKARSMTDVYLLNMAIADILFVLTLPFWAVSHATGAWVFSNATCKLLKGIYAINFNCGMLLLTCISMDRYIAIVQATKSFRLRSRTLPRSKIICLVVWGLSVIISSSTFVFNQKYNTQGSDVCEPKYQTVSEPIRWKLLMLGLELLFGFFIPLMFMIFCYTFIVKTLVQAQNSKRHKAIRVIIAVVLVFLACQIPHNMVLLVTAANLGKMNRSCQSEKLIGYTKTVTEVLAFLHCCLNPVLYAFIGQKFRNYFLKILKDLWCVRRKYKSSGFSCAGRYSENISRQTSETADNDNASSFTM
In words: FLIPR assay (inhibition of CCL20-induced calcium signal). It is filed as cell-based. The conditions noted are these: HEK-293 cells expressing human CCR6; mean values where determined several times; read-out: FLIPR IC50. In short, it runs like this:
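IC50 values come from baseline-corrected peak calcium fluorescence after agonist. The agonist was CCL20 at 10 nM final, added to engineered human CCR6 HEK-293 cells following a 30-min, room-temperature, dark preincubation with serially diluted compound. Readings were taken in a fluorometric imaging plate reader.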
On to `CC(C)c1ccc([C@](O)(c2cncc(C3CCOC3)c2)C2(C)CN(C)C2)cc1` (stereo partly drawn) [Example 304, (R)-(1,3-Dimethyl-azetidin-3-yl)-(4-isopropyl-phenyl)-[5-(tetrahydro-furan-3-yl)-pyridin-3-yl]-methanol], for which the 50% inhibitory concentration (IC50) was 385 nM. In the case of `C=C(CCO)c1cncc([C@@](O)(c2ccc(C(C)C)cc2)C2(C)CN(C)C2)c1` [Example 305, 3-{5-[(R)-(1,3-Dimethyl-azetidin-3-yl)-hydroxy-(4-isopropyl-phenyl)-methyl]-pyridin-3-yl}-but-3-en-1-ol] it was 121 nM; in that of `CC(C)c1ccc([C@](O)(c2cncc(C(=O)NC3CCCC3)c2)C2(C)CN(C)C2)cc1` [Example 306, N-Cyclopentyl-5-[(R)-(1,3-dimethyl-azetidin-3-yl)-hydroxy-(4-isopropyl-phenyl)-methyl]-nicotinamide], 101 nM. The value for `CC(C)c1ccc([C@](O)(c2cncc(C(=O)N3CCCC3)c2)C2(C)CN(C)C2)cc1` [Example 307] was 567 nM; that for `CC(C)c1ccc([C@](O)(c2cncc(C(=O)NC3CCOCC3)c2)C2(C)CN(C)C2)cc1` [Example 308] was 515 nM; that for `COCCCc1ccc(C(O)(c2cncc(N3CCCC3)c2)C2(C)CN(C)C2)cc1` (stereo not drawn) [Example 309, (1,3-Dimethyl-azetidin-3-yl)-[4-(3-methoxy-propyl)-phenyl]-(5-pyrrolidin-1-yl-pyridin-3-yl)-methanol] was 58.6 nM. In the case of `CN1CC(C)([C@](O)(c2ccc(C3CC3)cc2)c2cncc(N3CCCC3)c2)C1` [Example 310] it was 48.6 nM. Turning to `Cc1ccc([C@](O)(c2cncc(N3CCCC3)c2)C2(C)CN(C)C2)cc1` [Example 311], the 50% inhibitory concentration (IC50) worked out at 140 nM. In the case of `CC(C)c1ccc([C@](O)(c2cncc(C3CCN(C(=O)OC(C)(C)C)CC3)c2)C2(C)CN(C)C2)cc1` [Example 312, 5-[(R)-(1,3-Dimethyl-azetidin-3-yl)-hydroxy-(4-isopropyl-phenyl)-methyl]-3′,4′,5′,6′-tetrahydro-2′H-[3,4′]bipyridinyl-1′-carboxylic acid tert-butyl ester] it was 23.9 nM; in that of `CC(C)c1ccc([C@](O)(c2cncc(C3CCN(C(=O)OC(C)(C)C)C3)c2)C2(C)CN(C)C2)cc1` (stereo partly drawn) [Example 313], 158 nM.

Take `CC(C)c1ccc([C@](O)(c2cncc(C3CCOCC3)c2)C2(C)CN(C)C2)cc1` [Example 314]: the IC50 came out at 111 nM. The value for `CC(C)c1ccc([C@](O)(c2cncc(C3CCN(c4ccccn4)CC3)c2)C2(C)CN(C)C2)cc1` [Example 315, (R)-(1,3-Dimethyl-azetidin-3-yl)-(4-isopropyl-phenyl)-(3′,4′,5′,6′-tetrahydro-2′H-[2,1′; 4′,3″]terpyridin-5″-yl)-methanol] was 23.6 nM; that for `CC(C)c1ccc([C@](O)(c2cncc(C3CCCO3)c2)C2(C)CN(C)C2)cc1` (stereo partly drawn) [Example 318, (R)-(1,3-Dimethyl-azetidin-3-yl)-(4-isopropyl-phenyl)-[5-(tetrahydro-furan-2-yl)-pyridin-3-yl]-methanol] was 154 nM. The value for `CC1CCC(c2cncc([C@@](O)(c3ccc(C(C)C)cc3)C3(C)CN(C)C3)c2)O1` (stereo partly drawn) [Example 319] was 94.4 nM; that for `CC(C)c1ccc([C@](O)(c2cncc(C3CCC(C)(C)O3)c2)C2(C)CN(C)C2)cc1` (stereo partly drawn) [Example 320] was 86 nM. In the case of `CC(C)c1ccc([C@](O)(c2cncc(CC(F)(F)CO)c2)C2(C)CN(C)C2)cc1` [Example 321, 3-{5-[(R)-(1,3-Dimethyl-azetidin-3-yl)-hydroxy-(4-isopropyl-phenyl)-methyl]-pyridin-3-yl}-2,2-difluoro-propan-1-ol] it was 273 nM.

`Cc1cnc(-c2cncc([C@@](O)(c3ccc(C(C)C)cc3)C3(C)CN(C)C3)c2)o1` [Example 322, (R)-(1,3-Dimethyl-azetidin-3-yl)-(4-isopropyl-phenyl)-[5-(5-methyl-oxazol-2-yl)-pyridin-3-yl]-methanol]: the IC50 was 49.9 nM. Take `CC(C)c1ccc([C@](O)(c2cncc(-c3ncc(C4CCOCC4)o3)c2)C2(C)CN(C)C2)cc1` [Example 323, (R)-(1,3-Dimethyl-azetidin-3-yl)-(4-isopropyl-phenyl)-{5-[5-(tetrahydro-pyran-4-yl)-oxazol-2-yl]-pyridin-3-yl}-methanol]: the IC50 amounted to 67.8 nM. In the case of `CC(C)c1ccc([C@](O)(c2cncc(COc3ccc(F)cc3)c2)C2(C)CN(C)C2)cc1` [Example 324, (R)-(1,3-Dimethyl-azetidin-3-yl)-[5-(4-fluoro-phenoxymethyl)-pyridin-3-yl]-(4-isopropyl-phenyl)-methanol] it was 15 nM; in that of `CC(C)NC(=O)OCc1cncc([C@@](O)(c2ccc(C(C)C)cc2)C2(C)CN(C)C2)c1` [Example 325, Isopropyl-carbamic acid 5-[(R)-(1,3-dimethyl-azetidin-3-yl)-hydroxy-(4-isopropyl-phenyl)-methyl]-pyridin-3-ylmethyl ester], 595 nM; in that of `CC(C)c1ccc([C@](O)(c2cncc(CCOCc3ccccc3)c2)C2(C)CN(C)C2)cc1` [Example 326, (R)-[5-(2-Benzyloxy-ethyl)-pyridin-3-yl]-(1,3-dimethyl-azetidin-3-yl)-(4-isopropyl-phenyl)-methanol], 83.3 nM. In the case of `CC(C)c1ccc([C@](O)(c2cncc(C3CCC(C)(O)CC3)c2)C2(C)CN(C)C2)cc1` (stereo partly drawn) [Example 327, 4-{5-[(R)-(1,3-Dimethyl-azetidin-3-yl)-hydroxy-(4-isopropyl-phenyl)-methyl]-pyridin-3-yl}-1-methyl-cyclohexanol], the IC50 stood at 168 nM.

For the compound `CC(C)c1ccc([C@](O)(c2cncc(C3CC3C(C)(C)O)c2)C2(C)CN(C)C2)cc1` (stereo partly drawn) [Example 328, 2-(2-{5-[(R)-(1,3-Dimethyl-azetidin-3-yl)-hydroxy-(4-isopropyl-phenyl)-methyl]-pyridin-3-yl}-cyclopropyl)-propan-2-ol], the IC50 is 187 nM. Turning to `CC(C)c1ccc([C@](O)(c2ccnc(-c3noc(C4CCOCC4)n3)c2)C2(C)CN(C)C2)cc1` [Example 329, (S)-(1,3-Dimethyl-azetidin-3-yl)-(4-isopropyl-phenyl)-{2-[5-(tetrahydro-pyran-4-yl)-[1,2,4]oxadiazol-3-yl]-pyridin-4-yl}-methanol], the 50% inhibitory concentration (IC50) was 485 nM. In the case of `CC(C)c1ccc(C(O)(c2cnc(N3CCCC3)nc2)C2(C)CN(C)C2)cc1` (stereo not drawn) [Example 330, (1,3-Dimethyl-azetidin-3-yl)-(4-isopropyl-phenyl)-(2-pyrrolidin-1-yl-pyrimidin-5-yl)-methanol] it was 143 nM. The value for `CC(C)c1ccc(C(O)(c2cncc(N3CCCC3)n2)C2(C)CN(C)C2)cc1` (stereo not drawn) [Example 331, (1,3-Dimethyl-azetidin-3-yl)-(4-isopropyl-phenyl)-(6-pyrrolidin-1-yl-pyrazin-2-yl)-methanol] was 50.1 nM; that for `[2H]C([2H])([2H])C(=O)NC1(c2nc(-c3cncc([C@@](O)(c4ccc(C(C)C)cc4)C4(C)CN(C)C4)c3)no2)CC1` [Example 332] was 290 nM.

Regarding `[2H]C([2H])([2H])C(=O)N(C)C1(c2nc(-c3cncc([C@@](O)(c4ccc(C(C)C)cc4)C4(C)CN(C)C4)c3)no2)CC1` [Example 333], the IC50 is 113 nM. The value for `[2H]C([2H])([2H])C(=O)N(C)Cc1nc(-c2cncc([C@@](O)(c3ccc(C(C)C)cc3)C3(C)CN(C)C3)c2)no1` [Example 334] was 216 nM; that for `CC(C)c1ccc([C@](O)(c2cncc(-c3noc(CNC(=O)CO)n3)c2)C2(C)CN(C)C2)cc1` [Example 335] was 337 nM; that for `[2H]C([2H])([2H])C(=O)NCc1nc(-c2cncc([C@@](O)(c3ccc(C(C)C)cc3)C3(C)CN(C)C3)c2)no1` [Example 336] was 207 nM. Consider `CC(C)c1ccc([C@](O)(c2cncc(-c3noc(CC(C)(C)O)n3)c2)C2(C)CN(C(C)C)C2)cc1` [Example 337, 1-(3-{5-[(R)-Hydroxy-(1-isopropyl-3-methyl-azetidin-3-yl)-(4-isopropyl-phenyl)-methyl]-pyridin-3-yl}-[1,2,4]oxadiazol-5-yl)-2-methyl-propan-2-ol], for which the half-maximal inhibitory concentration (IC50) was 95.1 nM. As to `CCN1CC(C)([C@](O)(c2ccc(C(C)C)cc2)c2cncc(-c3noc(CC(C)(C)O)n3)c2)C1` [Example 338, 1-(3-{5-[(R)-(1-Ethyl-3-methyl-azetidin-3-yl)-hydroxy-(4-isopropyl-phenyl)-methyl]-pyridin-3-yl}-[1,2,4]oxadiazol-5-yl)-2-methyl-propan-2-ol], the half-maximal inhibitory concentration (IC50) came out at 93.8 nM.

As to `CC(C)c1ccc([C@](O)(c2cncc(-c3noc(C(C)(C)O)n3)c2)C2(C)CN(C(C)C)C2)cc1` [Example 339, 2-(3-{5-[(R)-Hydroxy-(1-isopropyl-3-methyl-azetidin-3-yl)-(4-isopropyl-phenyl)-methyl]-pyridin-3-yl}-[1,2,4]oxadiazol-5-yl)-propan-2-ol], the concentration for half-maximal inhibition (IC50) amounted to 100 nM. For the compound `CCN1CC(C)([C@](O)(c2ccc(C(C)C)cc2)c2cncc(-c3noc(C(C)(C)O)n3)c2)C1` [Example 340, 2-(3-{5-[(R)-(1-Ethyl-3-methyl-azetidin-3-yl)-hydroxy-(4-isopropyl-phenyl)-methyl]-pyridin-3-yl}-[1,2,4]oxadiazol-5-yl)-propan-2-ol], the IC50 was found to be 79.4 nM. In the case of `CC(C)c1ccc([C@](O)(c2cncc(-c3nc(C4CCN(C(=O)OCc5ccccc5)CC4)no3)c2)C2(C)CN(C)C2)cc1` [Example 341] it was 66.6 nM.

The IC50 is the concentration that gives 50% inhibition.
